One series has as its target Integrin alpha-V/beta-3 (Homo sapiens, UniProt P05106+P06756). Nature of the series: Antagonist activity at integrin alphaVbeta3 in human A375M cells assessed as cell adhesion to fibrinogen in presence of Mg2+. In kind it is functional, cell-based.
Series [1] has as its target T1, Integrin alpha-5/beta-1 (Homo sapiens, UniProt P05556+P08648). Nature of the series: Antagonist activity at integrin alpha5beta1 in human A375M cells assessed as inhibition of cell adhesion in presence of Mg2+ and MK-0429. In kind it is functional, cell-based.
A further series concerns A375M. Nature of the series: Selectivity ratio of IC50 for integrin alphavbeta3alpha5beta1-mediated human A375M cells adhesion to fibronectin in absence of MK-0429 to IC50 for integrin alpha5beta1-mediated human A375M cells adhesion to fibronectin in presence of MK-0429. In kind it is cell-based.
Series [2] addresses Fibronectin receptor (Integrin alpha-5/beta-1 and alpha-V/beta-3) (Homo sapiens, UniProt P05106+P05556+P06756+P08648). Put plainly: Antagonist activity at integrin alphavbeta3alpha5beta1 in human A375M cells assessed as inhibition of cell adhesion to fibronectin in presence of Mg2+. In kind it is functional, cell-based.
The target in series [3] is T1, Integrin alpha-5/beta-1. Put plainly: Binding affinity to integrin alpha5beta1. In kind it is protein-complex assay.
For series [4], the target named is T1, Integrin alpha-5/beta-1. Put plainly: Antagonist activity at integrin alpha5beta1 in human K562 cells assessed as inhibition of cell adhesion. It counts as functional, cell-based.
Another series is filed under the species Rattus norvegicus. Put plainly: Free drug level in rat. The settings on record: in vivo. It counts as ADME, organism-based.
For series [5], the target named is T1, Integrin alpha-5/beta-1. Put plainly: Antagonist activity at integrin alpha5beta1 in human K562 cells assessed as inhibition of cell adhesion in presence of human serum albumin. It counts as functional, cell-based.

Integrin alpha-V/beta-3, sequence (P05106 27-788 limits assumed): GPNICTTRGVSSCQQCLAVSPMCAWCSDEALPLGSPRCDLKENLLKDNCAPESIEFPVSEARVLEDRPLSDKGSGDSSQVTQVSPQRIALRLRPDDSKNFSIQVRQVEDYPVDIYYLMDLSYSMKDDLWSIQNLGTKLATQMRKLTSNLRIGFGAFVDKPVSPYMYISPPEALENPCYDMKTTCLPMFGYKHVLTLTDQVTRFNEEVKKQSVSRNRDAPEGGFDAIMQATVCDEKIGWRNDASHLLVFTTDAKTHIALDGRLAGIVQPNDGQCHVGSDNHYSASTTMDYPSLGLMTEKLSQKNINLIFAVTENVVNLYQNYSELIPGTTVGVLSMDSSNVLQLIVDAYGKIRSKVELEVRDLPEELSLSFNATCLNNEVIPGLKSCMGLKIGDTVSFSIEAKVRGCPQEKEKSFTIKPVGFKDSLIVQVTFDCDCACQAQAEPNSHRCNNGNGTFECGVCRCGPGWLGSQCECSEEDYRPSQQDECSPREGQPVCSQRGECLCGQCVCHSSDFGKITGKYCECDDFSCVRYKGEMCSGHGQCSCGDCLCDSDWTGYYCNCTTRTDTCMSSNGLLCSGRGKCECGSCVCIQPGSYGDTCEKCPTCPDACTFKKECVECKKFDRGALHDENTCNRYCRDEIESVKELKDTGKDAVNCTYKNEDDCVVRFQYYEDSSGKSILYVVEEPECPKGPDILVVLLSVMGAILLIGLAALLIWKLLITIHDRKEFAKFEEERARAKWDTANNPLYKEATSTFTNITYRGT
Integrin alpha-V/beta-3, sequence (P06756 31-889 limits assumed): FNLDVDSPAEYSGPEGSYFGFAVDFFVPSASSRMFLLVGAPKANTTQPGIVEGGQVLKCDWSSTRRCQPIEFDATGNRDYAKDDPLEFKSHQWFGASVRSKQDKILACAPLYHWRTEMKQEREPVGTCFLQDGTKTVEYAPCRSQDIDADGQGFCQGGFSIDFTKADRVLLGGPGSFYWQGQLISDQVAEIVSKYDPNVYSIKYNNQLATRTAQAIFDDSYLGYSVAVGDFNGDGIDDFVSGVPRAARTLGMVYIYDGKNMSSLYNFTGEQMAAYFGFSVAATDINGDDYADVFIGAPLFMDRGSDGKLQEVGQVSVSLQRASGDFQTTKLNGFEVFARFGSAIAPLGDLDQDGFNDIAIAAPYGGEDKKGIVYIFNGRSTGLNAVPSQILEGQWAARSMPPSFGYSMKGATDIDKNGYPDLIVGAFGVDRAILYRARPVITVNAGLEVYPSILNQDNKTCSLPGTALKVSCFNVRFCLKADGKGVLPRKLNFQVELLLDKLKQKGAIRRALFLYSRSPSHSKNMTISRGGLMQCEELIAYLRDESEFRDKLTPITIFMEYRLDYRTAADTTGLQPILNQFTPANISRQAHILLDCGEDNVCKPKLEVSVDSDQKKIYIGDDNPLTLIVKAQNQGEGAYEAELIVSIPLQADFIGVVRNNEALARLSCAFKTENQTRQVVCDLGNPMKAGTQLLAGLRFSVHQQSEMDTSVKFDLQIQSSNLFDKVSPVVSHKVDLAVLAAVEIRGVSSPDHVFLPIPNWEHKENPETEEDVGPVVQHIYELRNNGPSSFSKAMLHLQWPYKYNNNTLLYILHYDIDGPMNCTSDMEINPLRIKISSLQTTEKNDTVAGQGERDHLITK
Integrin alpha-V/beta-3, sequence (P06756 891-1048 limits assumed): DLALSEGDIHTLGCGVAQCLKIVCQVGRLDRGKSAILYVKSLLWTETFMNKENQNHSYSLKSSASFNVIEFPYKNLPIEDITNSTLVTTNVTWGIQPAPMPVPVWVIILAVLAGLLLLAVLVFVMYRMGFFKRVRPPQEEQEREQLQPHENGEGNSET
T1 sequence (P05556 21-798 limits assumed): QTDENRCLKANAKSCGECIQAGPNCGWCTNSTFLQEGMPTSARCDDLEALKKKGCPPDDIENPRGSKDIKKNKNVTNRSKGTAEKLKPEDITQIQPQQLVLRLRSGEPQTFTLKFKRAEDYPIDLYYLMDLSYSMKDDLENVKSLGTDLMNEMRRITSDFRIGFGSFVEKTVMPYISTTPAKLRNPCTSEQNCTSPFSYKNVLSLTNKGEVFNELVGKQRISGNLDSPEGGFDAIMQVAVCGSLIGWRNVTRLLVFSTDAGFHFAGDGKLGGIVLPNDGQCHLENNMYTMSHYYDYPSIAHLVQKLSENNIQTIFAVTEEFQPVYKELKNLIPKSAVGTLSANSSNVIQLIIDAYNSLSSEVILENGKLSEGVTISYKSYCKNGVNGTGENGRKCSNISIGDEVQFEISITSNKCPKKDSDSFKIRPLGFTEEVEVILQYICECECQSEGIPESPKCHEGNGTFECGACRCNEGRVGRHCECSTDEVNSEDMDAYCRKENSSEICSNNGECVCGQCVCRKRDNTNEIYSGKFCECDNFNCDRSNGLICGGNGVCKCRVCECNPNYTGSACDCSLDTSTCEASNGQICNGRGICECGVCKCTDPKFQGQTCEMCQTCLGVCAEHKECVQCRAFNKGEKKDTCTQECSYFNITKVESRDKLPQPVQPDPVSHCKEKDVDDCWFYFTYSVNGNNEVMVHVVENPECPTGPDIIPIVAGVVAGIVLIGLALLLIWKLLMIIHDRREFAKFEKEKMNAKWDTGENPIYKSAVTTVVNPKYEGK
T1 sequence (P08648 42-894 limits assumed): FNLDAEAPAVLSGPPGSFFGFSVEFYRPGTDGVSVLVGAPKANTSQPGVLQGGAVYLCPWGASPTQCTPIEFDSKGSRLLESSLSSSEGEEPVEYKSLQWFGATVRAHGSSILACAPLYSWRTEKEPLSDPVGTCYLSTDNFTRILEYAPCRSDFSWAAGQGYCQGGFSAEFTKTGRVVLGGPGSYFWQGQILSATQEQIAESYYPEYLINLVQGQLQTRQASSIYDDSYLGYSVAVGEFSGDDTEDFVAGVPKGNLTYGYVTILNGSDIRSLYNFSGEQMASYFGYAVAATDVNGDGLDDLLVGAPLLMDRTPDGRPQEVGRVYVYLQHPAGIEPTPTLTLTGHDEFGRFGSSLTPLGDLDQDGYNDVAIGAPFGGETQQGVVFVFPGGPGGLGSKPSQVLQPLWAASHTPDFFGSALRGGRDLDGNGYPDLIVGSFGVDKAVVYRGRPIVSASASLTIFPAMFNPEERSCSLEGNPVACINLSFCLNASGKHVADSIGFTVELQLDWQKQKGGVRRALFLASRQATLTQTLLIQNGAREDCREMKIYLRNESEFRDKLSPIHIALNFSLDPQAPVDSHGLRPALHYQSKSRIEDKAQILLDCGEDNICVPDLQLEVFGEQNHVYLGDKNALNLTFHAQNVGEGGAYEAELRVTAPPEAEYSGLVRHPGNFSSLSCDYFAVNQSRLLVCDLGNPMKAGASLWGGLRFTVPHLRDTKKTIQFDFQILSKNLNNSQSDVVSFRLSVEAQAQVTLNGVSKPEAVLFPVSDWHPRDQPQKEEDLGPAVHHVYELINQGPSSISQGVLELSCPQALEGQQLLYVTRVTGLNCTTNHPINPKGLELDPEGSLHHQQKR
T1 sequence (P08648 895-1049 limits assumed): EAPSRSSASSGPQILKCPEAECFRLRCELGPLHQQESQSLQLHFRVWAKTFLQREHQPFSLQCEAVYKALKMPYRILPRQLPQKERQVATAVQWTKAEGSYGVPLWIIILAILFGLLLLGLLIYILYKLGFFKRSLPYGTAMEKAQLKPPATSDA

On to `CNc1cccc(CCCc2ccc(C[C@H](NC(=O)c3c(Cl)cccc3Cl)C(=O)O)s2)n1`, for which the IC50 – broadly, the concentration needed to halve the response being measured – on Integrin alpha-V/beta-3 was 790 nM; on Integrin alpha-5/beta-1 [1], 180 nM; in series [2], 800 nM. For the same compound, the Ratio IC50 with A375M was found to be 4.4.

Consider `CNc1cccc(CCOc2ccc(C[C@H](NC(=O)c3c(Cl)cccc3Cl)C(=O)O)cc2C)n1`, for which the half-inhibitory concentration (IC50) came to 600 nM at Integrin alpha-V/beta-3; 3 nM at Integrin alpha-5/beta-1 [3]; 180 nM at Integrin alpha-5/beta-1 [1]; 81 nM on Integrin alpha-5/beta-1 [4]; 640 nM in series [2]. Besides, the Ratio IC50 with A375M worked out at 3.6.

Turning to `CNc1cccc(CCOc2ccc(C[C@H](NC(=O)C3CCCCC3C)C(=O)O)cc2)n1` (stereo not given in full), the half-maximal inhibitory concentration (IC50) stood at 960 nM on Integrin alpha-V/beta-3; 420 nM at Integrin alpha-5/beta-1 [1]; 71 nM on Integrin alpha-5/beta-1 [4]; 960 nM in series [2]; 29000 nM at Integrin alpha-5/beta-1 [5]. For the same compound, the Ratio IC50 in the series with A375M amounted to 2.3. For the same compound, the “Drug uptake(free)” value in the series listed under Rattus norvegicus was found to be 0.9%.

On to `CNc1cccc(CCCc2ccc(C[C@H](NC(=O)c3c(Cl)cccc3Cl)C(=O)O)nc2)n1`, for which the results for the IC50 on Integrin alpha-5/beta-1 [3] and on Integrin alpha-5/beta-1 [4] were 9 nM and 110 nM, respectively.

Turning to `O=C(N[C@@H](Cc1ccc(OCCNc2ccccn2)cc1)C(=O)O)c1c(Cl)cccc1Cl`, the half-maximal inhibitory concentration (IC50) at Integrin alpha-5/beta-1 [3] came out at 82 nM; at Integrin alpha-5/beta-1 [4], 2500 nM.

In the case of `CNc1cccc(CCOc2ccc(C[C@H](NC(=O)c3ccc(F)cc3C3CC3)C(=O)O)cc2)n1`, the half-maximal inhibitory concentration (IC50) at Integrin alpha-V/beta-3 came out at 520 nM; at Integrin alpha-5/beta-1 [3] it was 3 nM; on Integrin alpha-5/beta-1 [1], 250 nM; on Integrin alpha-5/beta-1 [4], 39 nM; in series [2] it was 510 nM; at Integrin alpha-5/beta-1 [5] it was 7700 nM. Moreover, the Ratio IC50 with A375M was 2. In addition, in the series listed under Rattus norvegicus, the “Drug uptake(free)” value is listed as 0.4%.

Turning to `CNc1cccc(CCOc2ccc(C[C@H](NC(=O)c3ccc(F)cc3OC)C(=O)O)cc2)n1`, the 50% inhibitory concentration (IC50) at Integrin alpha-V/beta-3 is 8300 nM; on Integrin alpha-5/beta-1 [3] it was 130 nM; on Integrin alpha-5/beta-1 [1] it was 6500 nM; at Integrin alpha-5/beta-1 [4] it was 820 nM; in series [2], 8300 nM; at Integrin alpha-5/beta-1 [5] it was above 100000 nM. The Ratio IC50 with A375M is 1.3.

In the case of `O=C(N[C@@H](Cc1cccc(OCCNc2ccccn2)c1)C(=O)O)c1c(Cl)cccc1Cl`, the concentration for half-maximal inhibition (IC50) on Integrin alpha-5/beta-1 [3] was 5900 nM; at Integrin alpha-5/beta-1 [4], above 290000 nM.

As for `CNc1cccc(CCOc2ccc(C[C@H](NC(=O)c3c(Cl)cccc3Cl)C(=O)O)nc2)n1`, the half-inhibitory concentration (IC50) on Integrin alpha-V/beta-3 is 620 nM; on Integrin alpha-5/beta-1 [3], 1 nM; on Integrin alpha-5/beta-1 [1], 84 nM; on Integrin alpha-5/beta-1 [4] it was 26 nM; in series [2], 510 nM. For the same compound, the Ratio IC50 in the series on A375M was 6.1.

For `O=C(N[C@@H](Cc1cccc(OCCCNc2ccccn2)c1)C(=O)O)c1c(Cl)cccc1Cl`, the IC50 at Integrin alpha-5/beta-1 [4] amounted to 20000 nM.

For the compound `CNc1cccc(CCOc2ccc(C[C@H](NC(=O)c3c(C)noc3C)C(=O)O)cc2)n1`, the “Drug uptake(free)” value in the series filed under Rattus norvegicus is listed as 3.8%.

As to `O=C(N[C@@H](Cc1ccc(OCCCNc2ccccn2)cc1)C(=O)O)c1c(Cl)cccc1Cl`, the IC50 turned out to be 2600 nM on Integrin alpha-V/beta-3; 11 nM at Integrin alpha-5/beta-1 [3]; 610 nM at Integrin alpha-5/beta-1 [1]; 120 nM on Integrin alpha-5/beta-1 [4]; 2500 nM in series [2]. Further, the Ratio IC50 in the series on A375M is 4.2.

Take `CNc1cccc(CCCc2ccc(C[C@H](NC(=O)c3c(Cl)cccc3Cl)C(=O)O)cn2)n1`: the IC50 was 5 nM on Integrin alpha-5/beta-1 [3] and 76 nM on Integrin alpha-5/beta-1 [4].

On to `CNc1cccc(CCOc2c(C)cc(C[C@H](NC(=O)c3c(Cl)cccc3Cl)C(=O)O)cc2C)n1`, for which the IC50 on Integrin alpha-V/beta-3 was determined as 8800 nM; at Integrin alpha-5/beta-1 [3] it was 21 nM; on Integrin alpha-5/beta-1 [1], 5800 nM; on Integrin alpha-5/beta-1 [4] it was 610 nM; in series [2], 8800 nM. Besides, in the series with A375M, the Ratio IC50 was 1.5.

Regarding `CNc1cccc(CCOc2ccc(C[C@H](NC(=O)c3c(Cl)cccc3Cl)C(=O)O)cc2F)n1`, the IC50 at Integrin alpha-V/beta-3 was found to be 290 nM; on Integrin alpha-5/beta-1 [3] it was 2 nM; at Integrin alpha-5/beta-1 [1], 76 nM; on Integrin alpha-5/beta-1 [4], 47 nM; in series [2] it was 330 nM. In addition, the Ratio IC50 with A375M was found to be 4.3.

Regarding `CNc1cccc(CCCc2csc(C[C@H](NC(=O)c3c(Cl)cccc3Cl)C(=O)O)c2)n1`, the IC50 on Integrin alpha-5/beta-1 [3] is 180 nM; at Integrin alpha-5/beta-1 [4], 400 nM.

`O=C(N[C@@H](Cc1cccc(OCCCCNc2ccccn2)c1)C(=O)O)c1c(Cl)cccc1Cl`: the concentration for half-maximal inhibition (IC50) amounted to 1900 nM on Integrin alpha-5/beta-1 [3] and 83000 nM at Integrin alpha-5/beta-1 [4].

On to `CNc1cccc(CCCc2ccc(C[C@H](NC(=O)c3c(Cl)cccc3Cl)C(=O)O)cc2)n1`, for which the IC50 at Integrin alpha-5/beta-1 [3] was found to be 8 nM; on Integrin alpha-5/beta-1 [4], 46 nM.

In the case of `CCc1cc(F)ccc1C(=O)N[C@@H](Cc1ccc(OCCc2cccc(NC)n2)cc1)C(=O)O`, the IC50 on Integrin alpha-V/beta-3 amounted to 340 nM; at Integrin alpha-5/beta-1 [3], 4 nM; on Integrin alpha-5/beta-1 [1], 200 nM; on Integrin alpha-5/beta-1 [4], 24 nM; in series [2] it was 340 nM; on Integrin alpha-5/beta-1 [5], 5000 nM. In addition, the Ratio IC50 with A375M amounted to 1.7. For the same compound, the “Drug uptake(free)” value in the series filed under Rattus norvegicus was determined as 0.4%.

As to `CNc1cccc(CCOc2ccc(C[C@H](NC(=O)c3c(C)cc(C)cc3C)C(=O)O)cc2)n1`, the concentration for half-maximal inhibition (IC50) at Integrin alpha-V/beta-3 turned out to be 370 nM; on Integrin alpha-5/beta-1 [3], 1 nM; on Integrin alpha-5/beta-1 [1], 57 nM; at Integrin alpha-5/beta-1 [4] it was 22 nM; in series [2], 380 nM; at Integrin alpha-5/beta-1 [5], 1500 nM. Besides, the Ratio IC50 in the series with A375M turned out to be 6.7. The “Drug uptake(free)” value in the series filed under Rattus norvegicus amounted to 0.5%.

As for `CNc1cccc(CCOc2ccc(C[C@H](NC(=O)c3c(C)cccc3C)C(=O)O)cc2)n1`, the IC50 on Integrin alpha-V/beta-3 was 400 nM; on Integrin alpha-5/beta-1 [3], 1 nM; at Integrin alpha-5/beta-1 [1] it was 90 nM; on Integrin alpha-5/beta-1 [4] it was below 23 nM; in series [2] it was 400 nM; at Integrin alpha-5/beta-1 [5] it was 420 nM. Also, in the series on A375M, the Ratio IC50 was found to be 4.5. Further, the “Drug uptake(free)” value in the series filed under Rattus norvegicus worked out at 2.2%.

`CNc1cccc(CCOc2csc(C[C@H](NC(=O)c3c(Cl)cccc3Cl)C(=O)O)c2)n1`: the IC50 was determined as 110 nM on Integrin alpha-5/beta-1 [3] and 510 nM at Integrin alpha-5/beta-1 [4].

Regarding `CNc1cccc(CCOc2ccc(C[C@H](NC(=O)c3c(Cl)cccc3Cl)C(=O)O)cn2)n1`, the IC50 on Integrin alpha-V/beta-3 stood at 1200 nM; at Integrin alpha-5/beta-1 [3], 6 nM; at Integrin alpha-5/beta-1 [1], 570 nM; at Integrin alpha-5/beta-1 [4], 110 nM; in series [2] it was 1200 nM. The Ratio IC50 with A375M turned out to be 2.1.

Take `COc1ccc([C@H](CC(=O)O)N2CCN(CCCc3ccc4c(n3)NCCC4)C2=O)cn1`: the IC50 at Integrin alpha-V/beta-3 amounted to 0.3 nM; at Integrin alpha-5/beta-1 [1] it was 2200 nM; at Integrin alpha-5/beta-1 [4], 4600 nM; in series [2], 810 nM. Also, in the series on A375M, the Ratio IC50 turned out to be 0.4.

As for `O=C(N[C@@H](Cc1ccc2oc(CCNc3ccccn3)cc2c1)C(=O)O)c1c(Cl)cccc1Cl`, the IC50 came out at 890 nM on Integrin alpha-5/beta-1 [3] and 4000 nM at Integrin alpha-5/beta-1 [4].

Regarding `CNc1cccc(CCOc2ccc(C[C@H](NC(=O)c3ccccc3)C(=O)O)cc2)n1`, the half-inhibitory concentration (IC50) at Integrin alpha-V/beta-3 was found to be 6700 nM; at Integrin alpha-5/beta-1 [3], 49 nM; on Integrin alpha-5/beta-1 [1], 5400 nM; at Integrin alpha-5/beta-1 [4], 430 nM; in series [2] it was 7400 nM. In addition, in the series on A375M, the Ratio IC50 was determined as 1.4.

For the compound `CNc1cccc(CCOc2ccc(C[C@H](NC(=O)c3ccc(F)cc3C)C(=O)O)cc2)n1`, the concentration for half-maximal inhibition (IC50) on Integrin alpha-V/beta-3 was 510 nM; on Integrin alpha-5/beta-1 [3], 9 nM; on Integrin alpha-5/beta-1 [1] it was 470 nM; at Integrin alpha-5/beta-1 [4], 36 nM; in series [2], 510 nM; at Integrin alpha-5/beta-1 [5], 24000 nM. Also, the Ratio IC50 in the series on A375M was determined as 1.1. Also, the “Drug uptake(free)” value in the series listed under Rattus norvegicus stood at 0.5%.

The values above are taken from ChEMBL document CHEMBL2029275, “Structure-activity relationship of a series of non peptidic RGD integrin antagonists targeting α5β1: part 2” (Bioorg Med Chem Lett, 2012).
